Assays:
[1] = biological target: cloned human P2Y1 receptors (Homo sapiens (Human), UniProt P47900); test: Binding Assay B - Scintillation Proximity Assay (SPA) for P2Y1 binding, [33P] 2MeS-ADP; conditions: SPA, 0.3 nM [33P] 2MeS-ADP, Cheng-Prusoff; read-out: P2Y1 Ki (nM) using binding assay B
Description: Binding Assay B—Scintillation Proximity Assay (SPA) for P2Y1 Binding
A SPA membrane binding assay was used to identify inhibitors of [^33P] […] Reactions were allowed to proceed to completion at room temperature for 1 hour followed by centrifugation of the plate for 5 min. About 40 μL of the aqueous solution was aspirated. Plates were sealed and the [^33P]

[2] = system: human platelet rich plasma (PRP); test: ADP induced platelet aggregation assay; conditions: Homo sapiens, Platelet, 5 min, read-out: PA IC50 (μM) @ 10 μM ADP, human PRP, 10 μM ADP, AUC at 5 minute

Sequence of cloned human P2Y1 receptors (P47900 whole entry): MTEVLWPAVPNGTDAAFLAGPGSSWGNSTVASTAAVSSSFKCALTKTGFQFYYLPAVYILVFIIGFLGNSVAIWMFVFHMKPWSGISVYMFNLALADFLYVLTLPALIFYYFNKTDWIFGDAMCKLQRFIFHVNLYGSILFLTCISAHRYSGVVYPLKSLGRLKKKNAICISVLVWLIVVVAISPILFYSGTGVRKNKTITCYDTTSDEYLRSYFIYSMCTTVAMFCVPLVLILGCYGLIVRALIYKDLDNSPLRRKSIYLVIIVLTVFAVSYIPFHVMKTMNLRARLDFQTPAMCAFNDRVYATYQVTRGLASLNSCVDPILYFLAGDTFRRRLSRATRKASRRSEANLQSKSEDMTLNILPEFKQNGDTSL

Compound | Ki [1] | IC50 [2]
CC1(C)CN(c2ccccc2NC(=O)Nc2ccc(OC(F)(F)F)cc2)c2c(O)ccc(Br)c21 [Example 40, 1-(2-(4-Bromo-7-hydroxy-3,3-dimethylindolin-1-yl)phenyl)-3-(4-(trifluoromethoxy)phenyl)urea] | 13.8 nM | 0.53 µM
CC1(C)CN(c2ccccc2NC(=O)Nc2nc3ccc(Cl)cc3s2)c2c(O)ccc(Br)c21 [Example 41, 1-(2-(4-Bromo-7-hydroxy-3,3-dimethylindolin-1-yl)phenyl)-3-(6-chlorobenzo[d]thiazol-2-yl)urea] | 10.6 nM | 0.47 µM
CC1(C)CN(c2ccccc2NC(=O)Nc2nc3ccc(Br)cc3s2)c2c(O)ccc(Br)c21 [Example 42, 1-(2-(4-Bromo-7-hydroxy-3,3-dimethylindolin-1-yl)phenyl)-3-(6-bromobenzo[d]thiazol-2-yl)urea] | 27.7 nM | 0.45 µM
CCC1(CC)CN(c2ccccc2NC(=O)Nc2ccc(OC(F)(F)F)cc2)c2c(O)ccc(C#N)c21 [Example 43, 1-(2-(3,3-Diethyl-4-cyano-7-hydroxyindolin-1-yl)phenyl)-3-(4-(trifluoromethoxy)phenyl)urea] | 7.8 nM | 0.47 µM
CCC1(CC)CN(c2ccccc2NC(=O)Nc2ccc(C(C)(C)C)cc2)c2c(O)ccc(C#N)c21 [Example 44, 1-(4-tert-Butylphenyl)-3-(2-(4-cyano-3,3-diethyl-7-hydroxyindolin-1-yl)phenyl)urea] | 6.9 nM | 0.45 µM
CCC1(CC)CN(c2ccccc2NC(=O)Nc2ccc(C3CCN(CC(C)(C)C)CC3)cc2)c2c(O)ccc(C#N)c21 [Example 45, 1-(2-(4-Cyano-3,3-diethyl-7-hydroxyindolin-1-yl)phenyl)-3-(4-(1-neopentylpiperidin-4-yl)phenyl)urea] | 6.7 nM | 0.39 µM
CCC1(CC)CN(c2ccccc2NC(=O)Nc2ccc(C3CCN(CC(C)C)CC3)cc2)c2c(O)ccc(C#N)c21 [Example 46, 1-(2-(4-Cyano-3,3-diethyl-7-hydroxyindolin-1-yl)phenyl)-3-(4-(1-isobutylpiperidin-4-yl)phenyl)urea] | 9.5 nM | 1 µM
CC1(C)CN(c2ccccc2NC(=O)Nc2ccc(OC(F)(F)F)cc2)c2c(O)ccc(C#N)c21 [Example 47, 1-(2-(4-Cyano-7-hydroxy-3,3-dimethylindolin-1-yl)phenyl)-3-(4-(trifluoromethoxy)phenyl)urea] | 18.6 nM | 3.35 µM
CCC1(CC)CN(c2ccccc2NC(=O)Nc2ccc(C3CCN(CC(C)C)CC3)cc2)c2c(O)ccc(Cl)c21 [Example 50, 1-(2-(4-Chloro-3,3-diethyl-7-hydroxyindolin-1-yl)phenyl)-3-(4-(1-isobutylpiperidin-4-yl)phenyl)urea] | 6.6 nM | 0.86 µM
CCC1(CC)CN(c2ccccc2NC(=O)Nc2ccc(OC(F)(F)F)cc2)c2c(O)ccc(Cl)c21 [Example 51, 1-(2-(4-Chloro-3,3-diethyl-7-hydroxyindolin-1-yl)phenyl)-3-(4-(trifluoromethoxy)phenyl)urea] | 14.1 nM | 0.41 µM
CCC1(CC)CN(c2ccccc2NC(=O)Nc2ccc(C(F)(F)F)cc2)c2c(O)ccc(Cl)c21 [Example 52, 1-(2-(4-Chloro-3,3-diethyl-7-hydroxyindolin-1-yl)phenyl)-3-(4-(trifluoromethyl)phenyl) urea] | 12.6 nM | 0.28 µM
CCC1(CC)CN(c2ccccc2NC(=O)Nc2csc(Cl)n2)c2c(O)ccc(Cl)c21 [Example 53, 1-(2-(4-Chloro-3,3-diethyl-7-hydroxyindolin-1-yl)phenyl)-3-(2-chlorothiazol-4-yl)urea] | 5 nM | 0.28 µM
CCC1(CC)CN(c2ccccc2NC(=O)Nc2nc3c(s2)CN(CC(C)C)CC3)c2c(O)ccc(Cl)c21 [Example 54, 1-(2-(4-Chloro-3,3-diethyl-7-hydroxyindolin-1-yl)phenyl)-3-(5-isobutyl-4,5,6,7-tetrahydrothiazolo[5,4-c]pyridin-2-yl)urea] | 13.3 nM | 0.15 µM
CCC1(CC)CN(c2ccccc2NC(=O)Nc2nc3c(s2)CN(CC(F)(F)F)CC3)c2c(O)ccc(Cl)c21 [Example 55, 1-(2-(4-Chloro-3,3-diethyl-7-hydroxyindolin-1-yl)phenyl)-3-(5-(2,2,2-trifluoroethyl)-4,5,6,7-tetrahydrothiazolo[5,4-c]pyridin-2-yl)urea] | 16.2 nM | 0.63 µM
CC1(C)CN(c2ccccc2NC(=O)Nc2ccc(OC(F)(F)F)cc2)c2c(O)ccc(Cl)c21 [Example 56, 1-(2-(4-Chloro-7-hydroxy-3,3-dimethylindolin-1-yl)phenyl)-3-(4-(trifluoromethoxy)phenyl)urea] | 8.7 nM | 0.87 µM
CC1(C)CN(c2ccccc2NC(=O)Nc2ccc(C(F)(F)F)cc2)c2c(O)ccc(Cl)c21 [Example 57, 1-(2-(4-Chloro-7-hydroxy-3,3-dimethylindolin-1-yl)phenyl)-3-(4-(trifluoromethyl)phenyl) urea] | 8.3 nM | 0.9 µM

Compound | Ki [1] | IC50 [2]
CC1(C)CN(c2ccccc2NC(=O)Nc2csc(Cl)n2)c2c(O)ccc(Cl)c21 [Example 58, 1-(2-(4-Chloro-7-hydroxy-3,3-dimethylindolin-1-yl)phenyl)-3-(2-chlorothiazol-4-yl)urea] | 4.1 nM | 0.32 µM
CC1(C)CN(c2cc(F)ccc2NC(=O)Nc2ccc(F)cc2F)c2c(O)ccc(C(F)(F)F)c21 [Example 59, 1-(2,4-Difluorophenyl)-3-(4-fluoro-2-(7-hydroxy-3,3-dimethyl-4-(trifluoromethyl)indolin-1-yl)phenyl)urea] | 5.7 nM | 0.24 µM
CC1(C)CN(c2ccc(F)cc2NC(=O)Nc2ccc(F)cc2F)c2c(O)ccc(C(F)(F)F)c21 [Example 60, 1-(2,4-Difluorophenyl)-3-(5-fluoro-2-(7-hydroxy-3,3-dimethyl-4-(trifluoromethyl)indolin-1-yl)phenyl)urea] | 10.6 nM | 0.62 µM
CC1(C)CN(c2cccc(F)c2NC(=O)Nc2ccc(F)cc2F)c2c(O)ccc(C(F)(F)F)c21 [Example 61, 1-(2,4-Difluorophenyl)-3-(2-fluoro-6-(7-hydroxy-3,3-dimethyl-4-(trifluoromethyl)indolin-1-yl)phenyl)urea] | 5.2 nM | 0.54 µM
CC1(C)CN(c2c(F)cccc2NC(=O)Nc2ccc(F)cc2F)c2c(O)ccc(C(F)(F)F)c21 [Example 62, 1-(2,4-Difluorophenyl)-3-(3-fluoro-2-(7-hydroxy-3,3-dimethyl-4-(trifluoromethyl)indolin-1-yl)phenyl)urea] | 14.6 nM | 0.75 µM
CC1(C)CN(c2ccc(F)cc2NC(=O)Nc2nc3ccc(F)cc3s2)c2c(O)ccc(C(F)(F)F)c21 [Example 63, 1-(5-Fluoro-2-(7-hydroxy-3,3-dimethyl-4-(trifluoromethyl)indolin-1-yl)phenyl)-3-(6-fluorobenzo[d]thiazol-2-yl)urea] | 20.8 nM | 0.18 µM
CC1(C)CN(c2cc(F)ccc2NC(=O)Nc2nc3ccc(F)cc3s2)c2c(O)ccc(C(F)(F)F)c21 [Example 64, 1-(4-Fluoro-2-(7-hydroxy-3,3-dimethyl-4-(trifluoromethyl)indolin-1-yl)phenyl)-3-(6-fluorobenzo[d]thiazol-2-yl)urea] | 13 nM | 0.21 µM
CC1(C)CN(c2ccccc2NC(=O)Nc2ccc(OC(F)(F)F)cc2)c2c(O)c(F)cc(Cl)c21 [Example 65, 1-(2-(4-Chloro-6-fluoro-7-hydroxy-3,3-dimethylindolin-1-yl)phenyl)-3-(4-(trifluoromethoxy)phenyl)urea] | 14.1 nM | 0.83 µM
CC1(C)CN(c2ccccc2NC(=O)Nc2nc3ccc(Cl)cc3s2)c2c(O)c(F)cc(Br)c21 [Example 66, 1-(2-(4-Bromo-6-fluoro-7-hydroxy-3,3-dimethylindolin-1-yl)phenyl)-3-(6-chlorobenzo[d]thiazol-2-yl)urea] | 21.3 nM | 0.75 µM
CC1(C)CN(c2ccccc2NC(=O)Nc2nc3ccc(F)cc3s2)c2c(O)cc(F)c(Br)c21 [Example 67, 1-(2-(4-Bromo-5-fluoro-7-hydroxy-3,3-dimethylindolin-1-yl)phenyl)-3-(6-fluorobenzo[d]thiazol-2-yl)urea] | 13.8 nM | 0.77 µM
CC1(C)CN(c2ccccc2NC(=O)Nc2csc(Cl)n2)c2c(O)cc(F)c(Br)c21 [Example 68, 1-(2-(4-Bromo-5-fluoro-7-hydroxy-3,3-dimethylindolin-1-yl)phenyl)-3-(2-chlorothiazol-4-yl)urea] | 7.5 nM | 0.6 µM
CC1(C)CN(c2ccccc2NC(=O)Nc2ccc(OC(F)(F)F)cc2)c2c(O)c(F)cc(Br)c21 [Example 69, 1-(2-(4-Bromo-6-fluoro-7-hydroxy-3,3-dimethylindolin-1-yl)phenyl)-3-(4-(trifluoromethoxy)phenyl)urea] | 18.1 nM | 0.83 µM
CC1(C)CN(c2ccccc2NC(=O)Nc2nc3ccc(Cl)cc3s2)c2c(O)cc(F)c(Br)c21 [Example 70, 1-(2-(4-Bromo-5-fluoro-7-hydroxy-3,3-dimethylindolin-1-yl)phenyl)-3-(6-chlorobenzo[d]thiazol-2-yl)urea] | 31.3 nM | 0.78 µM
CCC1(CC)CN(c2ccccc2NC(=O)Nc2ccc(OC(F)(F)F)cc2)c2c(O)ccc(C)c21 [Example 71, 1-(2-(3,3-Diethyl-7-hydroxy-4-methylindolin-1-yl)phenyl)-3-(4-(trifluoromethoxy)phenyl)urea] | 6.8 nM | 0.5 µM
CC(C)(C)Sc1ccc(O)c2c1C(C)(C)CN2c1ccccc1NC(=O)Nc1ccc(OC(F)(F)F)cc1 [Example 72, 1-(2-(4-(tert-Butylthio)-7-hydroxy-3,3-dimethylindolin-1-yl)phenyl)-3-(4-(trifluoromethoxy)phenyl)urea] | 32.2 nM | 1.05 µM

Source: patent publication US9540323B2 (BRISTOL-MYERS SQUIBB COMPANY, priority 2012, dated 2017)
